Data as given in patent US20130066264A1, “SUGAR-RESPONSIVE GEL AND MEDICINE ADMINISTERING DEVICE” (NATIONAL INSTITUTE FOR MATERIALS SCIENCE, priority 2010, published 2013).

Details: acid-base titration, FIG. 2
Excerpt: Next, for the sample 1, the comparative sample 1 and the comparative sample 2, the relationships between glucose concentrations and apparent changes in pKa were derived by acid-base titration in the conditions of various glucose concentrations (0 g/L, 1 g/L, 3 g/L, 5 g/L and g/L).

C=CC(=O)NCCNC(=O)c1ccc(B(O)O)cc1F [sample 1, 4-(2-acrylamideethylcarbamoyl)-3-fluorophenylboronic acid]
apparent pKa (glucose 0 g/L, 1 g/L, 3 g/L, 5 g/L and g/L (samples a1 to a5)): < 7.4 | degree of decrease in pKa according to the increase in concentration of glucose, versus comparative samples 1 and 2 (various glucose concentrations): remarkably superior
